In brackets after ≈: the same amount, converted by molar mass.
Experiments:
[1] = target: T1, Soybean lipoxygenase (Type I-B) (Glycine max, UniProt P08170); test: In vitro LOX inhibition assay; assay type: biochemical; details: for inhibition at 25 µM / inhibition at 50 µM / inhibition at 100 µM: read-out: Anti-LOX Activity (%); for IC50: sodium linoleate substrate, tris buffer pH 9, read-out: IC50 (µM), in vitro lipoxygenase inhibitory activity
T1 construct: purchased Merck (KGaA, Darmstadt, Germany)
T1 sequence (P08170 1-839): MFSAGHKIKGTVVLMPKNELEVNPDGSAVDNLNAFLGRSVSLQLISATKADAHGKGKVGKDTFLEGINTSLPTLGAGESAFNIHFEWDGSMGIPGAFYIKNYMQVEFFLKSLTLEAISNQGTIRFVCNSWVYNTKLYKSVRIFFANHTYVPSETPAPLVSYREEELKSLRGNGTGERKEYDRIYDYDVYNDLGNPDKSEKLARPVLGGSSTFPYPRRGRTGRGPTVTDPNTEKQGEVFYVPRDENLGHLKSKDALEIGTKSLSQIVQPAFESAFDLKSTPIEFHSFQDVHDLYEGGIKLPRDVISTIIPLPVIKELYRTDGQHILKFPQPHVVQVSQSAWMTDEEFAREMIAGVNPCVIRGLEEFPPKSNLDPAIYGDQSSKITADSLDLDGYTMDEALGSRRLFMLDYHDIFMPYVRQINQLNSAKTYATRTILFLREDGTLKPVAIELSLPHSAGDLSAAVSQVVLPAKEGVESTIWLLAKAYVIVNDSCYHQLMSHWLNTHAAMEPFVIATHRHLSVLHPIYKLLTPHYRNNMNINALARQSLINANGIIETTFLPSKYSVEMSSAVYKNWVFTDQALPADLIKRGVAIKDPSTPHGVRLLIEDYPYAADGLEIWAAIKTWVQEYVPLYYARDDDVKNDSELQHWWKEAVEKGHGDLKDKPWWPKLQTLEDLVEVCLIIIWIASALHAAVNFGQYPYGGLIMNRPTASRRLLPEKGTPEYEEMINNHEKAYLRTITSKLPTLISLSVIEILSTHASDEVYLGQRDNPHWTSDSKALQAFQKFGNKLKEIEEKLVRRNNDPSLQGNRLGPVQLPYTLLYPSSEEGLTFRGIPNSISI
Text: Soybean lipoxygenase (Type I-B) is a very often used enzyme for the investigation of anti-inflammatory properties of compounds [38]. The LOX inhibition assay measures the rate of oxidation of linoleic acid by lipoxygenase, which results in the formation of a colorless product that can be detected spectrophotometrically. This enzyme catalyzes the conversion of linoleic acid into hydroperoxy fatty acids and results in increased absorbance at 234 nm. The tested compounds dissolved in DMSO were incubated at room temperature with sodium linoleate (3 mM in tris buffer pH = 9) and enzyme solution (5 × 10^3 units/mL in saline). The activity for each tested compound was presented as IC50 value ± standard deviation (SD) of three independent measurements.

C. albicans ATCC 10231 = test: Microdilution MIC/MMC with resazurin; assay type: cell-based, Candida albicans
Experimental: (§1) The antimicrobial activity of PCH-1 and PCH-2 was tested against 13 microorganisms. The experiment included four standard strains, Staphylococcus aureus ATCC 6538, Bacillus subtilis ATCC 6633, Proteus mirabilis ATCC 12453, and Pseudomonas aeruginosa ATCC 27853; five isolates, Staphylococcus aureus, Escherichia coli, Salmonella enterica, Klebsiella pneumoniae, and Bacillus subtilis; and one probiotic strain Lactobacillus plantarum 299V. Additionally, three fungal strains were tested, including one standard strain, Candida albicans ATCC 10231, and two isolates, Saccharomyces cerevisiae and probiotic strain Saccharomyces boulardii.
(§2) The bacterial suspensions were prepared using the direct colony method. The turbidity of the initial suspension was adjusted using a densitometer (DEN-1, BioSan, Latvia). When adjusted to the turbidity of the 0.5 McFarland standard, the bacterial suspension contains approximately 10^8 colony-forming units (CFU)/mL, and the yeast suspension contains approximately 10^6 CFU/mL. For the experiment, the initial suspension was further diluted at a 1:100 ratio in a sterile 0.85% saline solution.
(§3) The antimicrobial activity was assessed by determining the minimum inhibitory concentrations (MICs) and minimum microbicidal concentrations (MMCs) using the microdilution plate method with resazurin (Alfa Aesar GmbH & Co. (KG, Karlsruhe, Germany)). For this, 96-well plates were prepared by adding 100 μL of Mueller Hinton broth (Torlak, Belgrade, Serbia) for bacterial tests and Sabouraud broth (Torlak, Belgrade, Serbia) for yeast into each well. The tested PCH-1 and PCH-2 were dissolved in 10% dimethyl sulfoxide (DMSO) and then diluted into sterile distilled water. A 100 μL sample from the stock solution of the tested compound was then added to the first row of the plate, followed by twofold serial dilutions using a multichannel pipette. This produced a concentration range from 2.69 to 0.0025 µmol/L. The method is described in detail in the reported paper.
(§4) Each test setup included growth control and sterility control. […] Minimum microbicidal concentrations (MMCs) were determined as described in detail in the reported paper.

S. cerevisiae = test: Microdilution MIC/MMC with resazurin; assay type: cell-based, Saccharomyces cerevisiae
Experimental: as §1, §2, §3, §4

S. boulardii = test: Microdilution MIC/MMC with resazurin; assay type: cell-based, Saccharomyces boulardii
Experimental: as §1, §2, §3, §4

B. subtilis (isolate) = test: Microdilution MIC/MMC with resazurin; assay type: cell-based, Bacillus subtilis
Experimental: as §1, §2, §3, §4

B. subtilis ATCC 6633 = test: Microdilution MIC/MMC with resazurin; assay type: cell-based, Bacillus subtilis
Experimental: as §1, §2, §3, §4

S. aureus ATCC 25923 [2] = test: Microdilution MIC/MMC with resazurin; assay type: cell-based, Staphylococcus aureus
S. aureus (isolate) = test: Microdilution MIC/MMC with resazurin; assay type: cell-based, Staphylococcus aureus
Experimental: as §1, §2, §3, §4

L. plantarum 299V = test: Microdilution MIC/MMC with resazurin; assay type: cell-based, Lactobacillus plantarum
Experimental: as §1, §2, §3, §4

K. pneumoniae = test: Microdilution MIC/MMC with resazurin; assay type: cell-based, Klebsiella pneumoniae
Experimental: as §1, §2, §3, §4

P. mirabilis ATCC 12453 [3] = test: Microdilution MIC/MMC with resazurin; assay type: cell-based, Proteus mirabilis
Experimental: as §1, §2, §3, §4

P. aeruginosa ATCC 27853 [4] = test: Microdilution MIC/MMC with resazurin; assay type: cell-based, Pseudomonas aeruginosa
Experimental: as §1, §2, §3, §4

E. coli = test: Microdilution MIC/MMC with resazurin; assay type: cell-based, Escherichia coli
Experimental: as §1, §2, §3, §4

S. enterica = test: Microdilution MIC/MMC with resazurin; assay type: cell-based, Salmonella enterica; details: S. enterica
Experimental: as §1, §2, §3, §4

S. aureus ATCC 25923 [5] = test: Inhibition of biofilm formation (crystal violet); assay type: cell-based, Staphylococcus aureus
P. mirabilis ATCC 12453 [6] = test: Inhibition of biofilm formation (crystal violet); assay type: cell-based, Proteus mirabilis
Experimental: (§5) The ability of S. aureus ATCC 6538, P. mirabilis ATCC 12453, and P. aeruginosa ATCC 27853 to form biofilms was assayed as described by O’Toole et al. (2000), with some modifications. Briefly, tissue culture 96-well microtiter plates (Sarstedt, Germany) were prepared by dispensing 100 µL of nutrient broth (i.e., Mueller Hinton broth) into each well. Then, 10 µL of spore suspension (1.0 McFarland for Gram-positive bacteria and 0.5 McFarland for Gram-negative bacteria) was added to each row. To encourage biofilm formation, all plates were incubated at 37 °C for 48 h, after which the content of each well was emptied and washed twice with 200 µL of sterile 0.85% saline to remove non-adherent cells. The biofilms formed were fixed by adding 100 µL of methanol until it evaporated completely, then stained with 0.1% (w/v) crystal violet (Fluka AG, Buchs, Switzerland) and left at room temperature for 20 min. The excess stain was washed away with deionized water, followed by […] of 96% ethanol. The optical densities (ODs) of the stained biofilms were measured with an ELISA plate reader (RT-2100C, Rayto, Shenzhen, China) at 630 nm. Control wells containing only broth were included to verify sterility and prevent nonspecific media binding. To account for background absorbance, OD readings from sterile medium, fixative, and dye were averaged and subtracted from all test measurements. All tests were conducted in duplicate. The tissue culture 96-well microtiter plates (Sarstedt, Germany) were prepared by dispensing 100 µL of nutrient broth (i.e., Mueller Hinton broth) into each well. From the stock solutions of tested PCH-1 and PCH-2 (at a concentration of 5.4 µmol/L), 100 µL was added to the first row of the microtiter plate. Twofold serial dilutions were then performed, followed by the addition of 10 µL of bacterial suspension to each well. The turbidity of the bacterial suspension was 0.5 McFarland for Gram-negative bacteria and 1.0 McFarland for Gram-positive bacteria. The microtiter plates prepared in this way were incubated at 37 °C for 48 h. The remaining steps of the experiment were carried out as outlined below. […] Only broth or broth with tested PCH-1 and PCH-2 served as controls to check sterility and nonspecific binding of media. To compensate for background absorbance, OD readings from sterile medium, extracts, fixative, and dye were averaged and subtracted from all test values. All tests were performed in duplicate.

P. aeruginosa ATCC 27853 [7] = test: Inhibition of biofilm formation (crystal violet); assay type: cell-based, Pseudomonas aeruginosa
Experimental: as §5

## CC(=O)c1c(O)c2ccccc2oc1=O [3AcHyC, 3-acetyl-4-hydroxycoumarin]
[1]
  inhibition at 25 µM: 26.4 ± 1.3%
  inhibition at 40 µM: 35.8 ± 0.8%
  inhibition at 50 µM: 43.5 ± 3.1%
  inhibition at 75 µM: 63.4 ± 0.4%
  inhibition at 100 µM: 81.2 ± 0.2%
  IC50: 57.9 ± 1.6 µM

## OC(Cn1cncn1)(Cn1cncn1)c1ccc(F)cc1F [Fluconazole, fluconazole, reference compound]
C. albicans ATCC 10231
  MMC: 0.2 mM
C. albicans ATCC 10231; Candida albicans, ATCC10231
  MIC: 100 µM (≈ 30.6 µg/mL)
S. cerevisiae
  MMC: 0.025 mM
S. cerevisiae; Saccharomyces cerevisiae
  MIC: 25 µM (≈ 7.66 µg/mL)
S. boulardii
  MMC: 0.1 mM
S. boulardii; Saccharomyces cerevisiae
  MIC: 25 µM (≈ 7.66 µg/mL)

## NNC(=O)c1ccc(O)c(O)c1O [H-1, 2,3,4-trihydroxybenzohydrazide]
[1]
  inhibition at 25 µM: 21.6 ± 1.4%
  inhibition at 40 µM: 33.9 ± 0.8%
  inhibition at 50 µM: 37.8 ± 1%
  inhibition at 75 µM: 57.5 ± 1.1%
  inhibition at 100 µM: 73.5 ± 0.6%
  IC50: 65.4 ± 0.6 µM

## NNC(=O)c1cc(O)c(O)c(O)c1 [H-2, 3,4,5-trihydroxybenzohydrazide]
[1]
  inhibition at 25 µM: 32 ± 0.1%
  inhibition at 40 µM: 44.4 ± 1.7%
  inhibition at 50 µM: 56 ± 1.1%
  inhibition at 75 µM: 73.4 ± 0.3%
  inhibition at 100 µM: 91.9 ± 0.2%
  IC50: 46 ± 0.9 µM

## CN(C)[C@@H]1C(O)=C(C(N)=O)C(=O)[C@@]2(O)C(O)=C3C(=O)c4c(O)cccc4[C@@](C)(O)[C@H]3C[C@@H]12 [Tetracycline, reference compound]
B. subtilis (isolate)
  MMC: 0.005 mM
B. subtilis (isolate); Bacillus subtilis
  MIC: 2 µM (≈ 0.889 µg/mL)
B. subtilis ATCC 6633
  MMC: 0.035 mM
B. subtilis ATCC 6633; Bacillus subtilis, ATCC6633
  MIC: 5 µM (≈ 2.22 µg/mL)
S. aureus ATCC 25923 [2]
  MMC: 0.005 mM
S. aureus ATCC 25923 [2]; Staphylococcus aureus, ATCC25923
  MIC: < 1 µM
S. aureus (isolate)
  MMC: <0.001 mM
S. aureus (isolate); Staphylococcus aureus
  MIC: < 1 µM
L. plantarum 299V
  MMC: 0.001 mM
L. plantarum 299V; Lactiplantibacillus plantarum
  MIC: < 1 µM
K. pneumoniae
  MMC: 0.07 mM
K. pneumoniae; Klebsiella pneumoniae
  MIC: 9 µM (≈ 4 µg/mL)
P. mirabilis ATCC 12453 [3]
  MMC: 0.07 mM
P. mirabilis ATCC 12453 [3]; Proteus mirabilis, ATCC12453
  MIC: 35 µM (≈ 15.6 µg/mL)
P. aeruginosa ATCC 27853 [4]
  MMC: 0.14 mM
P. aeruginosa ATCC 27853 [4]; Pseudomonas aeruginosa, ATCC27853
  MIC: 20 µM (≈ 8.89 µg/mL)
E. coli
  MMC: 0.01 mM
E. coli; Escherichia coli
  MIC: 5 µM (≈ 2.22 µg/mL)
S. enterica
  MMC: 0.01 mM
S. aureus ATCC 25923 [5]; S. aureus ATCC 25923, 48 h
  BIC90: >2.25 mM
S. aureus ATCC 25923 [5]; Staphylococcus aureus, ATCC25923, S. aureus ATCC 25923, 48 h, read-out: BIC50
  IC50: 560 µM
P. mirabilis ATCC 12453 [6]; P. mirabilis ATCC 12453, 48 h
  BIC90: >2.25 mM
P. mirabilis ATCC 12453 [6]; Proteus mirabilis, ATCC12453, P. mirabilis ATCC 12453, 48 h, read-out: BIC50
  IC50: 1310 µM
P. aeruginosa ATCC 27853 [7]; P. aeruginosa ATCC 27853, 48 h
  BIC90: >2.25 mM
P. aeruginosa ATCC 27853 [7]; Pseudomonas aeruginosa, ATCC27853, P. aeruginosa ATCC 27853, 48 h, read-out: BIC50
  IC50: > 2250 µM

Source: publication PMC11597774, “Investigation of Antimicrobial and Anti-Inflammatory Efficacy of Newly Synthesized Pyrogallol-Coumarin Hybrids: In Vitro and In Silico Studies” (Pharmaceutics, 2024)
